Experimental data as given in patent US10071133B2, “Method for destroying exosomes, kit for destroying exosomes, and method for isolating exosomes derived from normal cells” (priority 2015, dated 2018).

What was measured:
[1] = system: exosome derived from human prostate cancer cells (PC3ML); assay: Extraction of microRNA (miR-21) from exosome derived from prostate cancer cells, real-time PCR; format: biochemical; conditions: 100 μM peptide, 1×10^11 particles/mL PC3ML exosomes, 0.4 U/μL RNase inhibitor, 37° C., 24 hours; without peptide 3×10^−14M
Description: A cell suspension of cell line PC3ML derived from human prostate cancer cells (provided by the National Cancer Center Research Institute) was seeded in a dish containing RPMI 1640 medium (manufactured by Thermo Fisher Scientific Inc.) containing 10% fetal bovine serum. Subsequently, the cell line was grown at 37° C. under the condition that CO2 concentration was set to 5 volume % using a CO2 incubator, and then the medium was replaced with Advanced RPMI 1640 medium (manufactured by Thermo Fisher Scientific Inc.), followed by culturing for 48 hours, and the culture solution containing exosomes was obtained. This culture solution was centrifuged at 2,000 G for 10 minutes to remove the precipitate, followed by centrifugation at 110,000 G for 70 minutes to precipitate the exosomes, and therefore an exosome fraction was recovered. The recovered exosome fraction was suspended in a phosphate buffered saline (PBS) and then stored at 4° C. Storage samples were lightly suspended with a vortex mixer (vibration mixer) before use. […]
The reverse transcription PCR solution obtained by the above described method was processed and by comparing the number of cycles on a calibration curve of microRNA using Taqman Assay primer (manufactured by Thermo Fisher Scientific Inc., Taqman microRNA Assays, Taqman Assay primer, and hsa-mir-21 or hsa-mir-16) and Real-Time PCR Master Mixes (manufactured by Thermo Fisher Scientific Inc., TaqMan Universal PCR Master Mix II, w/UNG) with StepOnePlus Real-Time PCR System, MiR-21 or miR-16 was quantified. […]
The amount of microRNA (miR-21) contained in the recovered eluate was quantified by the above described real-time PCR method. […] In addition, the destructive activity of the antimicrobial peptide used was evaluated on the basis of the following criteria based on the quantitative result of the concentration of microRNA (miR-21) performed by the real-time PCR method. […]

[2] = system: exosomes derived from human breast cancer cells (MM231-luc-D3H2LN) in human peripheral blood sample; conditions: […]10^10 particles/mL exosomes, 100 μM magainin 2 or 8% phenol, 25° C., 24 hours
Description: The exosome fraction A prepared from the cell line MM231-luc-D3H2LN derived from human breast cancer cells was added to a peripheral blood sample collected from a healthy person with no cancer (hereinafter will be also referred to as human peripheral blood sample) so as to become an exosome concentration of an actual cancer patient, and thereby an artificial sample of a human peripheral blood of the cancer patient was produced. The human peripheral blood sample was obtained after procurement of the patient informed consent according to the Declaration of Helsinki, similarly to the method described in Japanese Unexamined patent publication No. 2013-198483, for example. Blood was drawn using a blood collection tube containing an anticoagulant.
Using a part of the incubated solution, the exosomes were purified with Exo-Flow32 CD9 IP Kit (manufactured by SBI), and then the number of exosomes in the solution was measured using the nanoparticle analyzer (NanoSight LM10; manufactured by NanoSight, Ltd.). […] In addition, a part of the incubated solution was subjected to the serum component protein electrophoresis.

With Magainin 2 the “Destructive activity (concentration of microRNA miR-21 in eluate)” value [1] was “B (the concentration of microRNA is 5×10^−14M to 10×10^−14M)” and the “exosome amount compared to Comparative Example 3 (no additive)” value [2] was “decreased”.
